{"source": "patent US20130023504A1", "about": "“Modulation of Prostaglandin/Cyclooxygenase Metabolic Pathways” (HUNTER-FLEMING LIMITED, priority 2006, published 2013)", "format_in_all_cases": "cell-based", "key": {"PC-12 cells": {"tested_on": "PC-12 cells", "assay": "Ischaemia (oxygen-glucose deprivation)-induced cell death in NGF-differentiated PC-12 cells, Trypan Blue exclusion", "settings": "for decrease in cell death: vs. ischemia alone", "procedure": "PC-12 cells were maintained on flasks coated with Collagen typel in PC-12 media with the following composition; RPMI 1640 without L-glutamine with 2 mM L-glutamine, 10 mM HEPES, 1 mM Sodium Pyruvate, additional glucose to give a final concentration of 4.5 g/L (RPMI normally has 2 g/L), 10% heat inactivated horse serum, 5% foetal calf serum and 50 units of penicillin/streptomycin. Media was changed every 2 days.\nConfluent cultures of PC-12 cells were differentiated by culturing for 7 days in PC-12 medium without serum but with 50 ng/mlNGF (PC-12 NGF media). The cells were harvested, washed, counted and 1×10^5 PC-12 cells/well were plated overnight in a micro titre plate in glucose free PC-12 NGF medium. The medium was then changed to glucose-free PC-12 NGF medium containing the compounds to be tested and the plates left under normoxic conditions for 30 minutes.\nDuring this stage, the media and test substances for the anoxic exposure were placed in a chamber and de-oxygenated with 95% N2/5% CO2. The media in the plates was changed with the de-oxygenated media and the plates then placed in an anaerobic chamber gassed with 95% N2 5% CO2 for 10 minutes before being sealed and incubated at 37° C. overnight (18 hours). For normoxia controls, the cells were treated identically to ischemic treatments except that all incubations were in 5% CO2/95% air.\nViability was determined using Trypan Blue exclusion."}, "rat sensory neurones [1]": {"tested_on": "rat sensory neurones", "assay": "Neurite growth of sensory neurones in primary culture (anti β-Tubulin, In Cell Analyzer)", "procedure": "Rat sensory neurones were prepared according to the method described by Hall et al. 1997 (Hall A K, Ai X, Hickman G E, MacPhedran S E, Nduaguba C O, Robertson C P. The generation of neuronal heterogeneity in a rat sensory ganglion. J. Neurosci. 1997 Apr. 15; 17(8):2775-84). Briefly, female rats (15 days gestation) were killed by cervical dislocation (Rats Wistar; Janvier, Le Genest-St-Isle, France) and the foetuses removed from the uterus. Their spinal cords with the dorsal root ganglia (DRG) were removed and placed in ice-cold medium of Leibovitz (L15, Fisher 11415-049) containing Penicillin 50 Ul/ml-Streptomycin 50 pg/ml (PS, 1%) and bovine serum albuminutes (BSA 1%, Sigma A6003). The DRG were recovered and dissociated by trypsinisation for 20 minutes at 37° C. (trypsin EDTA 10×, 10%, Fisher 15400054) diluted in PBS without calcium and magnesium (Fisher 2007-03). The reaction was stopped by addition of Dulbecco modified Eagle medium (DMEM, Fisher 21969-035) containing DNase I grade II (0.1 mg/ml Roche diagnostic 104159) and foetal bovine serum (FBS 10%, Fisher 10270-098). The cell suspension was triturated with a 10 ml pipette and centrifuged at 350×g for 10 minutes at room temperature. The pellet of dissociated cells was then resuspended in defined culture medium.\nViable cells were counted in a Neubauer cytometer using the trypan blue exclusion test (Sigma) and seeded at a density of 25 000 cells/well in 96 well-plates (Nunc). Wells were pre-coated with poly-L-lysine (10 μg/ml, Sigma P2636) in ultra pure sterile water (Merck Eurolab 60759.01).\nCells were allowed to adhere for 2 hours and maintained in a humidified incubator at 37° C. in 5% CO2/95% air atmosphere.\nThe culture medium was changed into a defined culture medium after a 12 hours incubation period following the conditions described below:\nNGF 50 ng/ml and 10 ng/ml (in 0.1% DMSO)\nAfter 6 hours, 12 hours and 24 hours of incubation with 7β-OH EPIA, cells were fixed for 5 minutes in an ethanol/acetic acid solution (95%/5%) at −20° C. and rinsed 3 times in PBS.\nMotor neurones and sensory neurones were labelled by monoclonal anti β-Tubulin antibody (Sigma T8660) diluted at 1:400 in incubation solution (PBS with 5% of FCS and 0.1% of saponin, Sigma S-7900). This antibody specifically labels neurone cell bodies and neurites.\nAfter 2 hours of incubation, the cells were washed in PBS and incubated with Alexa Fluor 488 goat anti mouse IgG (Molecular Probes A11001) diluted at 1:300 in incubation solution to reveal the 8-Tubulin III antibodies.\nAnalysis of the total length of neurones labelled with anti β-Tubulin antibodies (neurones) were carried out using In Cell Analyzer 1000 3.2.Workstation software.\nThe results were expressed in percentage compared to the vehicle. Comparison of groups was carried out using the unpaired T test."}, "rat sensory neurones [2]": {"tested_on": "rat sensory neurones", "assay": "Cisplatin-induced loss of neurite density in primary dorsal root ganglia sensory neurones (anti β-Tubulin)", "settings": "10 ng/ml, cisplatin 3 μg/ml", "procedure": "(§1) Primary cultures of dissociated dorsal root ganglia sensory neurones were incubated with 3 μg/ml cisplatin, with and without 7β-OH EPIA for 48 hours and 72 hours and the following parameters were evaluated:\nneurite network density stained with an anti 8-Tubulin antibody\n(§2) Rat sensory neurones were prepared according to the method described by Hall et al 1997 [Hall et al. (J. Neurosci. 1997 Apr. 15; 17(8); 2775-84]. Briefly, a female rat (15 days gestation) was killed by cervical dislocation (Rats Wistar; Janvier, Le Genest-St-lsle, France) and the foetuses removed from the uterus. Their spinal cords with the dorsal root ganglia (DRG) were removed and placed in ice-cold medium of Leibovitz (L15, Fisher 11415-049) containing Penicillin 50 UI/ml-Streptomycin 50 μg/ml (PS, 1%) and bovine serum albuminutes (BSA 1%, Sigma A6003). The DRG were recovered and dissociated by trypsinisation for 20 minutes at 37° C. (trypsin EDTA 10×, 10%, Fisher 15400054) diluted in PBS without calcium and magnesium (Fisher 2007-03). The reaction was stopped by addition of Dulbecco modified Eagle medium (DMEM, Fisher 21969-035) containing DNase I grade II (0.1 mg/ml Roche diagnostic 104159) and foetal bovine serum (FBS 10%, Fisher 10270-098). The cell suspension was triturated with a 10 ml pipette and centrifuged at 350×g for 10 minutes at room temperature. The pellet of dissociated cells was then resuspended in defined culture medium.\n(§3) Viable cells were counted in a Neubauer cytometer using the trypan blue exclusion test (Sigma) and seeded at a density of 30 000 cells/well in 96 well-plates (Nunc). Wells were pre-coated with poly-L-lysine (10 μg/ml, Sigma P2636) in ultra pure sterile water (Merck Eurolab 60759.01).\n(§4) Cells were allowed to adhere for 2 h and maintained in a humidified incubator at 37° C. in 5% CO2/95% air atmosphere.\n(§5) After 5 days of culture, the culture medium was changed into a defined culture medium following the different conditions described below:\n(§6) Test compound 7β-OH EPIA (1 nM, 10 nM and 100 nM)+cisplatin (3 μg/ml)\n(§7) Reference compound NGF (10 ng/ml)+cisplatin (3 μg/ml)\n(§8) Six wells per condition were carried out to assess neuronal survival. After 48 hours and 72 hours of incubation, the neuronal cells were fixed for 5 minutes in an ethanol/acetic acid solution (95%/5%) at −20° C. and rinsed 3 times in PBS.\n(§9) Cell bodies of sensory neurones were labelled by monoclonal anti MAP-2 antibody (Sigma M4403) and the neurite of sensory neurones were labelled by monoclonal β-Tubulin antibody (Sigma T8660). These antibodies were diluted at 1:400 in incubation solution (PBS with 5% of FCS and 0.1% of saponin, Sigma S-7900). These antibodies specifically label neurone cell bodies and neuritis, respectively.\n(§10) After 2 hours of incubation, the cells were washed in PBS and incubated with Alexa Fluor 488 goat anti mouse IgG (Molecular Probes A11001) diluted at 1:300 in incubation solution to reveal the MAP-2 and the β-Tubulin antibodies. Cell nuclei were stained with a fluorescent marker (Hoechst staining solution, SIGMA H6024, 1 μg/ml in incubation solution during 1 hour).\n(§11) For each condition, 2 pictures per well (12 pictures per condition) were taken using In Cell Analyzer 1000 (Amersham Biosciences) controlled by the computer software In Cell Analyzer 1000 3.2. For the MAP-2 labelling, the magnification was ×10, for the β-Tubulin labelling, the magnification was ×20. For each labelling, all the images were taken in the same conditions.\n(§12) Analysis of the number of cell bodies labelled with anti-MAP-2 antibodies, and total length of neurites labelled with anti β-Tubulin antibodies, were carried out using In Cell Analyzer 1000 3.2.Workstation software. The results were expressed in percentage compared to the vehicle. The comparisons of each group were carried out using the unpaired T test."}, "rat sensory neurones [3]": {"tested_on": "rat sensory neurones", "assay": "Cisplatin-induced neuronal cell death, number of cell bodies per field in dorsal root ganglia sensory neurones (anti MAP-2)", "settings": "10 ng/ml, cisplatin 3 μg/ml", "procedure": "as §1\nneurone cell bodies stained with an anti MAP 2 antibody (microtubule associated protein 2)\nas §2, §3, §4, §5, §6, §7, §8, §9, §10, §11, §12"}}, "note": "Where “and” joins values, the source holds several entries; their conditions need not be identical. Identical values can stand only once.", "data": [{"molecule": "COc1ccc2c(c1)c(CC(=O)O)c(C)n2C(=O)c1ccc(Cl)cc1", "note": "[Indomethacin]", "values": [{"measurement": "antagonism of the protective effect of 7β-OH-EPIA", "setting": "PC-12 cells; 10 μM indomethacin with 1 μM and 10 μM 7β-OH-EPIA", "result": "fully antagonised"}, {"measurement": "decrease in cell death", "setting": "PC-12 cells; 10 μM", "result": "no direct effect"}, {"measurement": "decrease in cell death", "setting": "PC-12 cells; 100 μM", "result": 29, "unit": "%"}]}, {"molecule": "C[C@]12N[C@H](Cc3ccccc31)c1ccccc12", "note": "[MK801]", "values": [{"measurement": "decrease in cell death", "setting": "PC-12 cells; 10 μM", "result": "62% and 42%"}]}, {"molecule": "NGF: Nerve Growth Factor, a specific growth factor for sensory neurones; reference compound", "values": [{"measurement": "Neurites length per field, % Vehicle", "setting": "rat sensory neurones [1]; 10 ng/ml, 6 hours", "result": 191, "unit": "%"}, {"measurement": "Neurites length per field, Mean", "setting": "rat sensory neurones [1]; 10 ng/ml, 6 hours", "result": 195.2, "unit": "μm"}, {"measurement": "Neurites length per field, % Vehicle", "setting": "rat sensory neurones [1]; 10 ng/ml, 12 hours", "result": 128, "unit": "%"}, {"measurement": "Neurites length per field, Mean", "setting": "rat sensory neurones [1]; 10 ng/ml, 12 hours", "result": 381.3, "unit": "μm"}, {"measurement": "Neurites length per field, % Vehicle", "setting": "rat sensory neurones [1]; 10 ng/ml, 24 hours", "result": 371, "unit": "%"}, {"measurement": "Neurites length per field, Mean", "setting": "rat sensory neurones [1]; 10 ng/ml, 24 hours", "result": 819.9, "unit": "μm"}, {"measurement": "Neurites length per field, % Vehicle", "setting": "rat sensory neurones [1]; 50 ng/ml, 6 hours", "result": 273, "unit": "%"}, {"measurement": "Neurites length per field, Mean", "setting": "rat sensory neurones [1]; 50 ng/ml, 6 hours", "result": 279.1, "unit": "μm"}, {"measurement": "Neurites length per field, % Vehicle", "setting": "rat sensory neurones [1]; 50 ng/ml, 12 hours", "result": 216, "unit": "%"}, {"measurement": "Neurites length per field, Mean", "setting": "rat sensory neurones [1]; 50 ng/ml, 12 hours", "result": 644.3, "unit": "μm"}, {"measurement": "Neurites length per field, % Vehicle", "setting": "rat sensory neurones [1]; 50 ng/ml, 24 hours", "result": 309, "unit": "%"}, {"measurement": "Neurites length per field, Mean", "setting": "rat sensory neurones [1]; 50 ng/ml, 24 hours", "result": 682.1, "unit": "μm"}, {"measurement": "% Control without cisplatin (neurite length)", "setting": "rat sensory neurones [2]; 48 hours", "result": 117, "unit": "%"}, {"measurement": "Mean neurite length", "setting": "rat sensory neurones [2]; 48 hours", "result": 6362.44, "unit": "μm"}, {"measurement": "% Control without cisplatin (neurite length)", "setting": "rat sensory neurones [2]; 72 hours", "result": 113, "unit": "%"}, {"measurement": "Mean neurite length", "setting": "rat sensory neurones [2]; 72 hours", "result": 6000.30, "unit": "μm"}, {"measurement": "% Control without cisplatin (cell bodies)", "setting": "rat sensory neurones [3]; 48 hours", "result": 96, "unit": "%"}, {"measurement": "number of cell bodies per field, Average", "setting": "rat sensory neurones [3]; 48 hours", "result": 58.33}, {"measurement": "% Control without cisplatin (cell bodies)", "setting": "rat sensory neurones [3]; 72 hours", "result": 1.2, "unit": "%"}, {"measurement": "number of cell bodies per field, Average", "setting": "rat sensory neurones [3]; 72 hours", "result": 54.92}]}]}
